The test system of test [1] is JAK2/Tyk2. Put plainly: IL-12 T cell phospho-STAT4. The settings on record: for EC50: Homo sapiens, T-cell, read-out: IL-12 T cell phospho-STAT4 EC50; for inhibition of JAK2/Tyk2-dependent phosphorylation of Stat4 in response to IL-12: human primary T-cells. It counts as cell-based, human. As to the method:
(§1) The activity of Compound III and Compound I was assessed in a panel of cell-based assays. Compound III and Compound I are selective inhibitors of JAK1/3-dependent signaling. Data for a non-selective JAK inhibitor (Compound IV) is shown for reference. Mixed lymphocyte reactions (MLRs) were performed by incubating freshly prepared naive human peripheral blood lymphocytes from one donor with CD80+/CD86+ mature Dendritic Cells derived from a different donor for 5 days. The percentage of CD3+/CD71+ (anti-CD3-APC, Clone HIT3a, anti-CD 71-FITC, Clone M-A712; BD Biosciences, San Jose, Calif.) proliferating cells was assessed by fluorescence-activated cell sorting (FACS; BD Bioscience). Interleukin-2 (IL-2)-dependent human primary T cell proliferation was assessed using CellTiter-Glo® Luminescent Cell Viability Assay (Promega, Madison, Wis.). STAT phosphorylation induced by different cytokines in human primary T cells was measured by intracellular FACS analysis (anti-pY694-STAT5 AlexaFluor488, anti-pY701-STAT1 AlexaFluor488, and anti-pY693-STAT4 AlexaFluor488; BD Biosciences). STAT phosphorylation induced by different cytokines was performed in whole blood after red blood cell lysis (Lyse/Fix buffer, BD Biosciences) and methanol permeabilization. Interferon-γ (IFN-γ) signaling was assessed in the U937 monocytic cell line by measuring ICAM-1 surface expression by FACS (ICAM-1-APC, BD Bioscience).

The test system of test [2] is Lew recipients of heterotopic BN heart transplants. Put plainly: Five-day heart allograft study: CD3+/CD68+ immunohistochemistry. The settings on record: for CD68+ cell infiltration compared to Tac HD group / CD68+ cells compared to no medication group: HD groups, five days, p<0.001; for CD68+ and CD3+ cell infiltration compared to Tac LD group: LD groups (Compound I 15 mg/kg BID, Compound III 5 mg/kg BID), p<0.05. It counts as in vivo, rat. An excerpt:
Male Brown Norway (BN) and Lewis (Lew) rats weighing 350 g were purchased from Harlan (Indianapolis, Ind.) and were housed under conventional conditions. All animals were fed standard rat chow and water ad libitum and received humane care in compliance with the Principles of Laboratory Animal Care formulated by the National Society for Medical Research and the Guide for the care and Use of Laboratory Animals published by the National Institutes of Health (National Institutes of Health publication No. 85-23, revised 1985). Allogeneic (BN-to-Lew) and syngeneic (Lew-to-Lew) heterotopic heart transplantations were performed as described previously (Ono et al., J. Thorac. Cardiovasc. Surg. 57:225-229, 1969). In brief, rats were anaesthetized using 2% isoflurane. The donor received an intravenous bolus of 500 I.U. heparin. Cardiac arrest was achieved using 20 ml Bretschneider solution (Custodiol, Dr. F. Koehler Chemie, Bensheim, Germany). […] Heart-beating score was assessed directly after transplantation for each animal from score 0 (no palpable contraction) to 4 (strong and regular contraction). Only animals with beating scores of 4 were included into the study.
Compound I and Compound III were provided by Rigel (South San Francisco, Calif.) and Tacrolimus was provided by Astellas (Munich, Germany). All drugs were administrated orally each in two different concentrations: Compound I LD (15 mg/kg BID; n=6) and HD (60 mg/kg BID; n=6); Compound III LD (5 mg/kg BID; n=6) and HD (20 mg/kg BID; n=6); Tac LD (1 mg/kg QD; n=6) and HD (4 mg/kg QD; n=6). Administration of all drugs was performed every day at the same time points. Tacrolimus was applied only once a day (QD) every 24 hours. During administration of Compound I (BID) and Compound III (BID) a 12 hour pause was kept in between each drug application.
Lew recipients of heterotopic BN heart transplants were randomly assigned to their group. Animals were either left untreated (groups 1 and 2; see Table 1,5-day study) or received their group specific medication (groups 3-8; see Table 1,5-day study) by oral application. An untreated syngeneic transplant group Lew-Lew was generated as control.
Paraffin-embedded tissue sections were deparaffinized and rehydrated. Sections were incubated with protein blocking solution (ZytoChem Plus (AP) Polymer Kit; Zytomed Systems GmbH, Berlin, Germany) to prevent background staining. After antigen retrieval, specific antibodies against rat CD68 and CD3 (Serotec, Raleigh, N.C.) were applied to identify macrophages and lymphocytes, respectively, and visualized via alkaline phosphatase and new fuchsin substrate reaction (Zytomed System GmbH; Dako, Carpinteria, Calif.). Sections were counterstained by H+E (Waldeck). After overnight incubation with primary antibody solution and subsequent washing, enhancement reagent (ZytoChem) was applied, followed by enzymatic reaction of alkaline phosphatase induced by New Fuchsin Substrate System (Dako).
Inflammatory cell densities within the myocardium were assessed with the Leica QWin software (Leica Microsystems GmbH, Wetzlar, Germany) and expressed as cells/high-power field (HPF). Histological analyses of all stainings were done by a pathologist.

In test [3] the test system is JAK1/3. Put plainly: IL-2-dependent human primary T cell proliferation. It counts as cell-based. On the procedure: as §1, with “STAT phosphorylation induced by different cytokines was performed in whole blood after red blood cell lysis (Lyse/Fix buffer, BD Biosciences) and methanol permeabilization.” left out
In test [4] the test system is JAK1/2. In words: IFN-γ U937 ICAM-1 surface expression. It counts as cell-based. The following applies: for EC50: Homo sapiens. On the procedure:
as §1

In test [5] the test system is A549 epithelial cells. Put plainly: A549 proliferation. It counts as cell-based. The following applies: Homo sapiens. As to the method:
The erythropoietin (EPO)-dependent survival of cultured human erythroid progenitor cells (CHEPs) was determined using CellTiter-Glo® Luminescent Cell Viability Assay (Promega). Human primary T cell activation was assessed by measuring IL-2 production by ELISA (R&D Systems, Minneapolis, Minn., USA) following plate-bound anti-CD3 and anti-CD28 stimulation (Anti-Human CD3; BD Biosciences; Anti-Human CD28; Immunotech; Prague, Czech Republic). The enzymatic activity of tryptase released by human cultured mast cells (CHMCs) upon stimulation with IgE was quantified by cleavage of the synthetic fluorescent peptide substrate Z-Ala-Lys-Arg-7-amino-4-methylcoumarin (MP Biomedicals, Solon, Ohio, USA) in tryptase buffer. B-cell receptor-dependent Erk phosphorylation was measured in Ramos cells by intracellular FACS (anti-pT202/pY204-ERK1/2-AlexaFluor488; BD Biosciences). Cell proliferation assays were performed using A549 epithelial cells and H1299 lung carcinoma cells using nuclear staining to measure cell numbers (4′6-diamidino-2-phenylindole, dihydrochloride (DAPI; Invitrogen, Darmstadt, Germany)).

In test [6] the test system is human peripheral blood lymphocytes. Put plainly: Mixed lymphocyte reaction (MLR). It counts as cell-based. As to the method:
as §1

The mark [7] stands for this setting: read-out: EC50, proliferative response of human primary T-cells in the mixed lymphocyte reaction.

Like-named read-outs stand apart in the source and are kept apart here.

Consider `COc1cc(Nc2ncc(C)c(Nc3ccc4oc(=O)[nH]c4c3)n2)cc(C)c1C` [Compound III, 5-(2-(3-methoxy-4,5-dimethylphenylamino)-5-methylpyrimidin-4-ylamino)benzol[d]oxazol-2-(3H)-one], for which the EC50 in test [1] amounted to 1560 ± 971 nM; in test [3] (read-out: IL-2 T cell proliferation EC50) it was 30 ± 13 nM; in test [4] (U-937, read-out: IFN-γ U937 ICAM-1 EC50), 791 ± 352 nM; in test [5] (A549, read-out: A549 proliferation EC50) it was 5420 ± 3040 nM; in test [6] (120 h, read-out: MLR EC50), 22 ± 6 nM; in test [6] (setting [7]), 22 nM. In test [1], the “inhibition of JAK2/Tyk2-dependent phosphorylation of Stat4 in response to IL-12” value was “only weakly inhibited”. Besides, the “CD68+ cell infiltration compared to Tac HD group” value in test [2] is given as “significantly less”. The “CD68+ cells compared to no medication group” value in test [2] is reported as “significantly reduced”. Moreover, the “CD68+ and CD3+ cell infiltration compared to Tac LD group” value in test [2] is “less CD68+ and CD3+ cell infiltration”. The “inhibition of JAK1/2-dependent ICAM-1 expression in U937 cells in response to IFN-γ” value in test [4] is recorded as “limited inhibition”.

For `COc1cc(Nc2ncc(C)c(Nc3ccc4oc(=O)[nH]c4c3)n2)cc(C)c1F` [Compound I, 5-(2-(4-fluoro-3-methoxy-5-methylphenylamino)-5-methylpyrimidin-4-ylamino)benzo[d]oxazol-2(3H)-one], the EC50 is 463 nM in test [1] (upstream kinases JAK2/Tyk2); 21 ± 7 nM in test [3] (upstream kinases JAK1/3, read-out: IL-2 T cell proliferation EC50); 417 ± 211 nM in test [4] (U-937, upstream kinases JAK1/2, read-out: IFN-γ U937 ICAM-1 EC50); 1860 ± 251 nM in test [5] (A549, upstream kinases Multiple, read-out: A549 proliferation EC50); 16 ± 7 nM in test [6] (120 h, 5 days, CD3+/CD71+ proliferating cells by FACS, read-out: MLR EC50); 16 nM in test [6] (setting [7]). The “inhibition of JAK2/Tyk2-dependent phosphorylation of Stat4 in response to IL-12” value in test [1] is listed as “only weakly inhibited”. For the same compound, the “CD68+ cell infiltration compared to Tac HD group” value in test [2] was “significantly less”. Further, the “CD68+ cells compared to no medication group” value in test [2] is “significantly reduced”. In addition, in test [2], the “CD68+ and CD3+ cell infiltration compared to Tac LD group” value was “less CD68+ and CD3+ cell infiltration”. Also, the “inhibition of JAK1/2-dependent ICAM-1 expression in U937 cells in response to IFN-γ” value in test [4] is “limited inhibition”.

Source of the values: US8637038B2, “Methods for inhibiting allograft rejection” (Rigel Pharmaceuticals, Inc., priority 2011, dated 2014).
